For assay [1], the target named is T1, human N-type Ca channel (Homo sapiens, UniProt Q00975). Nature of the assay: Calcium influx assay (FDSS), KCl depolarization, Fluo8 dye. Particulars: HEK 293 cells expressing human N-type Ca channel; 100 mM KCl; read-out: N Type IC50 Data FDSS. In kind it is cell-based. Further details: host or cells: HEK 293. On the procedure:
All cell culture reagents were procured from HyClone and other reagents were from Fisher. Recombinant HEK 293 cells expressing human N-type Ca channel (Millipore) were maintained in DMEM F12 containing 10% FBS and selection antibiotics at 37 °C in 5% CO2.
Cells were incubated at 30 °C in 5% CO2 overnight. The medium was removed and cells were loaded with Fluo8 dye (AAT Bioquest) at 37 °C and 30 °C, 30 min each in darkness. Cells were washed four times with wash buffer (16 mM Herep pH 7.2, 2 mM CaCl2, 1 mM MgCl2, 5 mM glucose, 140 mM choline chloride and 2 mM KCl) leaving 15 µL buffer after the last wash. Compounds of Formula (I), serially diluted, were added to the cell plate. The plates were incubated in darkness for 15 min. Cells were depolarized with 100 mM KCl and Ca influx was measured.

The target of assay [2] is T1, human N-type Ca channel. Nature of the assay: Electrophysiological response, QPatch (depolarization -80 mV to +20 mV). Particulars: for inhibition at 10 µM: read-out: Qpatch Pulse=1 (percent inhibition); for N Type IC50 Data Qpatch Pulse=1 / N Type IC50 Data Qpatch Pulse=15: concentration range 0.01-0.3 µM.
Procedure: The recombinant cell line described above was used in the measurement of electrophysiological properties with QPatch (Sophion). Cells were maintained in culture as mentioned above. Prior to the experiment, the flasks were moved to 30 °C and incubated for 48-72 hrs. On the day of assaying, cells were detached and harvested. The cell pellet was re-suspended in SMF4HEK (HyClone)/25mM HEPS at 2-5 million/ mL and placed on the QStirrer of the QPatch for 30-60 min prior to the start of the assay. […] Microtiter-Plate/Reference Buffer contained 140 mM TEA-Cl, 10mM BaCl2, 0.8 mM MgCl2, 10 mM HEPES pH ∼7.4 adjusted with TEA-OH/HCl, and ∼300mOsm. Cells were transferred to a QPatch 48 plate and gigaseal was formed. The plate was perfused with intracellular and extracellular buffer. […] In brief, cells were depolarized from resting potential of -80 mV to +20 mV and current was recorded. Data was plotted as percent inhibition vs concentration of the compound and IC50 values were generated using Graphpad Prism non-linear regression analysis.
Where [3] appears, read: N Type IC50 Data Qpatch Pulse=15, Pulse=15, concentration range 0.3-10 µM.
Where [4] appears, read: N Type IC50 Data Qpatch Pulse=1, Pulse=1, concentration range 0.01-1 µM.
Setting [5] is: read-out: N Type IC50 Data Qpatch Pulse=15, Pulse=15, concentration range 0.01-1 µM.
The mark [6] stands for this setting: N Type IC50 Data Qpatch Pulse=1, Pulse=1, concentration range 0.3-10 µM.
The mark [7] stands for this setting: N Type IC50 Data Qpatch Pulse=15, Pulse=15, concentration range 0.01-1 µM.

SMILES strings stand for the structures.

T1 sequence (Q00975 whole entry): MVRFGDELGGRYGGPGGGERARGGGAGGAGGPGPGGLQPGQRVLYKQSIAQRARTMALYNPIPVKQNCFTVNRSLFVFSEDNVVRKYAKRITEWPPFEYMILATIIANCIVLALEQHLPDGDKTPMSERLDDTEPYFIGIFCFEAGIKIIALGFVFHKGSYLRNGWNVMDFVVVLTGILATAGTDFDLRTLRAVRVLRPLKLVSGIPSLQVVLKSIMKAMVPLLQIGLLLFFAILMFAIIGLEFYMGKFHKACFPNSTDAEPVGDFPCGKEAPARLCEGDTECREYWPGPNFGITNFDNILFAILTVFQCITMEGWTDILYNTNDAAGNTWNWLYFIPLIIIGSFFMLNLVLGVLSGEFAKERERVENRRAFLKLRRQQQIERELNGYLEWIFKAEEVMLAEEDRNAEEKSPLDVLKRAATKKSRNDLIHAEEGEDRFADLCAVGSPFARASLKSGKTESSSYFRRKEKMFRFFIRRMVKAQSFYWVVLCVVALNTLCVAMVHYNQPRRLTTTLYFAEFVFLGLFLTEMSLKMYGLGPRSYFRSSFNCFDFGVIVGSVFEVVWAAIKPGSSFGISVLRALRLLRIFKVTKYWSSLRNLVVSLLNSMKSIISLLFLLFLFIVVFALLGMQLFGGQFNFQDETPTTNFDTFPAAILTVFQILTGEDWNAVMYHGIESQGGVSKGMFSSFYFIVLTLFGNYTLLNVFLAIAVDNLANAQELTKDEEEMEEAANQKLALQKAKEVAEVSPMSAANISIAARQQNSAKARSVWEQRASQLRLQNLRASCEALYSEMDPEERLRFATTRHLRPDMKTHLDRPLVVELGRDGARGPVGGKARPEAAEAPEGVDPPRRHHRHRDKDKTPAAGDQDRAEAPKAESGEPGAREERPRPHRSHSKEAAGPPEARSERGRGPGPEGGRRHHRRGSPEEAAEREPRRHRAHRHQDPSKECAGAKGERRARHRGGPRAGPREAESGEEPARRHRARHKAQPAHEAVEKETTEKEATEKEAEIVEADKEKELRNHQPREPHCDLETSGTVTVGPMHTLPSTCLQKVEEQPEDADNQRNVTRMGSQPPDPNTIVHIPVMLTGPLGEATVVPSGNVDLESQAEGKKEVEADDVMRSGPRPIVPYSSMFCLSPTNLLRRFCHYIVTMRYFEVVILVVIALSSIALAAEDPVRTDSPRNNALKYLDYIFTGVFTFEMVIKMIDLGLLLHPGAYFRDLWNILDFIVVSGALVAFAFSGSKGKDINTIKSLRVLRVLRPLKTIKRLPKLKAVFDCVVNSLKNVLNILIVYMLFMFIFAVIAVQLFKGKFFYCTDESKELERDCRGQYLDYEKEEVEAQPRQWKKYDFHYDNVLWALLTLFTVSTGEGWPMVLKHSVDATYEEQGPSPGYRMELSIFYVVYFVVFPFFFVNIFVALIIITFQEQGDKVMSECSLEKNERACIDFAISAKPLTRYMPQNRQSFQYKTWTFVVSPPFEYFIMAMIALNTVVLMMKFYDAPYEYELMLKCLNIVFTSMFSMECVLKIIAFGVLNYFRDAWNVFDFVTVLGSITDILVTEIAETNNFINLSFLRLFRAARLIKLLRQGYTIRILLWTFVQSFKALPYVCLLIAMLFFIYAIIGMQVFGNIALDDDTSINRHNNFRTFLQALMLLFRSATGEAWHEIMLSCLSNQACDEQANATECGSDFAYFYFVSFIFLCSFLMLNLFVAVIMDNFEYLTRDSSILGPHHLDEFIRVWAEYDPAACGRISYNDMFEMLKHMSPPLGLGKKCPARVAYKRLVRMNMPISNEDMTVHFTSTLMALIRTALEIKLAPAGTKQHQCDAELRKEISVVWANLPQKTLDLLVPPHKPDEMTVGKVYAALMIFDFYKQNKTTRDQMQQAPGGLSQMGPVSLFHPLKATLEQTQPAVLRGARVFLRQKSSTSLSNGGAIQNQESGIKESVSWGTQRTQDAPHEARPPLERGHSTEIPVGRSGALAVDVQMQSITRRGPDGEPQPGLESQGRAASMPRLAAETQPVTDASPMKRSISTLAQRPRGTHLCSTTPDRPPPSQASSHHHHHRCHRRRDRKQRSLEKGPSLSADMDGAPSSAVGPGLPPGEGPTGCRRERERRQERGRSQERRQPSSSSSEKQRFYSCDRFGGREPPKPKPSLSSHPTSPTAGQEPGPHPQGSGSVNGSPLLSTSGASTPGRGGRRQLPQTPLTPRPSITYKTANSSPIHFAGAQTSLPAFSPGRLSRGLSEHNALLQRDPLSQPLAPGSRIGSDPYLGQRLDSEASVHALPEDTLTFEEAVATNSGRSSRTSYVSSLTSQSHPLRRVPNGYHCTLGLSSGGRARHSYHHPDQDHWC
T1 sequence (P54284 whole entry partner): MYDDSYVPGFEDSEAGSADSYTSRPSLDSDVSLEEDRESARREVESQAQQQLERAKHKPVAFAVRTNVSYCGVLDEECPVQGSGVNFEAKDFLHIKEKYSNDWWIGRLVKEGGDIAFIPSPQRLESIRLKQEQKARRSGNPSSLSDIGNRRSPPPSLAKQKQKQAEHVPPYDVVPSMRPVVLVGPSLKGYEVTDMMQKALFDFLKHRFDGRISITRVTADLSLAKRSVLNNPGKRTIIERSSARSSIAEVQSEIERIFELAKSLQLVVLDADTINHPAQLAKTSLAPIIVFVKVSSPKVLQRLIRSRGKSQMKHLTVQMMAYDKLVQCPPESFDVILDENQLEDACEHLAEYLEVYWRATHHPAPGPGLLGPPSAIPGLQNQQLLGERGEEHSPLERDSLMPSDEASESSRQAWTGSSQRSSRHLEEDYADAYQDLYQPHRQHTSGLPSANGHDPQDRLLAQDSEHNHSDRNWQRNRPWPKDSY
T1 sequence (P54289 25-956 partner limits assumed): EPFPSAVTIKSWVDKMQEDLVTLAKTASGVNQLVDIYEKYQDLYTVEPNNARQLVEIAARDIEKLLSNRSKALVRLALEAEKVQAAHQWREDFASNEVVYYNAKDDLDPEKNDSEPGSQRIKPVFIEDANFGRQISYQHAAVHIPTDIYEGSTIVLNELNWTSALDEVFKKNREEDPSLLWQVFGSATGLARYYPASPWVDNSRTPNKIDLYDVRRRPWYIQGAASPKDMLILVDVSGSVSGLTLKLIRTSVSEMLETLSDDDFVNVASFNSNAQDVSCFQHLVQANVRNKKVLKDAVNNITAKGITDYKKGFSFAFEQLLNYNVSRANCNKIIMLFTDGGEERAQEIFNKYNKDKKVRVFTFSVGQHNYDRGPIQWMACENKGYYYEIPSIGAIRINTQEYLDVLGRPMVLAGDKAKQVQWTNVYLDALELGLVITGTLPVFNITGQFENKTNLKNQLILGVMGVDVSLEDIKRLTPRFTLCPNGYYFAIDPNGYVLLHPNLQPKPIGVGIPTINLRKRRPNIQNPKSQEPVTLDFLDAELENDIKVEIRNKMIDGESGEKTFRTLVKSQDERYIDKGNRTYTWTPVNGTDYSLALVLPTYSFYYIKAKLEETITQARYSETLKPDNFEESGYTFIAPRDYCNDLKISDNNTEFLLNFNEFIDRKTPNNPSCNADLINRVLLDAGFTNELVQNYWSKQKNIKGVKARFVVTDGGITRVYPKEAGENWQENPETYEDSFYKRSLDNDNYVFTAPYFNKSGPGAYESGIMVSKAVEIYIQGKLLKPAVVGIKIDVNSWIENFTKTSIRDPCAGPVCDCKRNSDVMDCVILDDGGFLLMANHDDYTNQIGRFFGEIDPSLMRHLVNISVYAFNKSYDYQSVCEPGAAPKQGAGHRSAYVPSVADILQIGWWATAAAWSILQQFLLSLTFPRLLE
T1 sequence (P54289 957-1103 partner limits assumed): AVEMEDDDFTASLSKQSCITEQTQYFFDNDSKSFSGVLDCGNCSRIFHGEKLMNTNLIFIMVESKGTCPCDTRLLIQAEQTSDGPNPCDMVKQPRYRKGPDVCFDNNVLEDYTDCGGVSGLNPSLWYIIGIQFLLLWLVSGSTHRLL

Turning to `COc1cnccc1-c1nc(C2CC(C)(C)OC(C)(C)C2)cn1-c1ccc(F)cc1` [Compound 2, 4-(1-(4-fluorophenyl)-4-(2,2,6,6 tetramethyltetrahydro-2H-pyran-4-yl)-1H-imidazol-2-yl)-3-methoxypyridine], the figures for the IC50 on human N-type Ca channel [1] and at human N-type Ca channel [2] (setting [3]) were 128 nM and 6200 nM, respectively.
On to `CCOc1ccc(-n2cc(C3CC(C)(C)OC(C)(C)C3)nc2-c2ccncc2OC)cc1` [Compound 3, 4-(1-(4-ethoxyphenyl)-4-(2,2,6,6-tetramethyltetrahydro-2H-pyran-4-yl)-1H-imidazol-2-yl)-3-methoxypyridine], for which the results for the IC50 on human N-type Ca channel [1], on human N-type Ca channel [2] (setting [4]) and on human N-type Ca channel [2] (setting [5]) were 376 nM, 830 nM and over 1000 nM, respectively.
Regarding `COc1ccccc1-c1nc(C2CC(C)(C)OC(C)(C)C2)cn1-c1ccc(F)cc1` [Compound 4, 1-(4-fluorophenyl)-2-(2-methoxyphenyl)-4-(2,2,6,6-tetramethyltetrahydro-2H-pyran-4-yl)-1H-imidazole], the results for the IC50 at human N-type Ca channel [1] and against human N-type Ca channel [2] (setting [3]) were 17 nM and 1060 nM, respectively.
With `COc1ccccc1-c1nc(C2CC(C)(C)OC(C)(C)C2)cn1-c1ccc(C)nc1` [Compound 5, 5-(2-(2-methoxyphenyl)-4-(2,2,6,6-tetramethyltetrahydro-2H-pyran-4-yl)-1H-imidazol-1-yl)-2-methylpyridine], the results for the IC50 on human N-type Ca channel [1] and on human N-type Ca channel [2] (setting [6]) were 191 nM and 5900 nM, respectively.
With `COc1ccccc1-c1nc(C2CC(C)(C)OC(C)(C)C2)cn1-c1ccc(C)cn1` [Compound 6, 2-(2-(2-methoxyphenyl)-4-(2,2,6,6-tetramethyltetrahydro-2H-pyran-4-yl)-1H-imidazol-1-yl)-5-methylpyridine], on human N-type Ca channel [1], the IC50 (in general, the point on the concentration scale where inhibition reaches its midpoint) was 739 nM.
For `COc1ccc(-n2cc(C3CC(C)(C)OC(C)(C)C3)nc2-c2ccccc2OC)cc1` [Compound 7, 2-(2-methoxyphenyl)-1-(4-methoxyphenyl)-4-(2,2,6,6-tetramethyltetrahydro-2H-pyran-4-yl)-1H-imidazole], the IC50 at human N-type Ca channel [1] was 113 nM; against human N-type Ca channel [2] (setting [6]), 1170 nM; against human N-type Ca channel [2] (setting [3]), 680 nM.
As for `COc1ccccc1-c1nc(C2CC(C)(C)OC(C)(C)C2)cn1-c1cnc(C)nc1` [Compound 8, 5-(2-(2-methoxyphenyl)-4-(2,2,6,6-tetramethyltetrahydro-2H-pyran-4-yl)-1H-imidazol-1-yl)-2-mithylpyrimidine], the IC50 on human N-type Ca channel [1] was over 10000 nM; at human N-type Ca channel [2] (setting [4]), 508 nM; on human N-type Ca channel [2] (setting [7]), over 1000 nM.
`COc1ncccc1-c1nc(C2CC(C)(C)OC(C)(C)C2)cn1Cc1cccc(Cl)c1` [Compound 9, 3-(1-(3-chlorobenzyl)-4-(2,2,6,6-tetramethyltetrahydro-2H-pyran-4-yl)-1H-imidazol-2-yl)-2-methoxypyridine]: the IC50 at human N-type Ca channel [1] amounted to 793 nM.
Take `COc1cccnc1-c1nc(C2CC(C)(C)OC(C)(C)C2)cn1-c1ccc(C#N)cc1` [Compound 12, 4-(2-(3-methoxypyridin-2-yl)-4-(2,2,6,6-tetramethyltetrahydro-2H-pyran-4-yl)-1H-imidazol-1-yl)benzonitrile]: at human N-type Ca channel [1], the IC50 stood at 630 nM. In addition, the inhibition (commonly how much of the control response was suppressed) at 10 µM on human N-type Ca channel [2] amounted to 28%.
For the compound `COc1cnccc1-c1nc(C2CC(C)(C)OC(C)(C)C2)cn1-c1ccc(Cl)c(F)c1` [Compound 13, 4-(1-(4-chloro-3-fluorophenyl)-4-(2,2,6,6-tetramethyltetrahydro-2H-pyran-4-yl)-1H-imidazol-2-yl)-3-methoxypyridine], the IC50 at human N-type Ca channel [1] is 200 nM; at human N-type Ca channel [2] (setting [4]), over 1000 nM; at human N-type Ca channel [2] (setting [5]) it was over 1000 nM.
For the compound `COc1ccccc1-c1nc(C2CC(C)(C)OC(C)(C)C2)cn1-c1ccc(Cl)c(C#N)c1` [Compound 14, 2-chloro-5-(2-(2-methoxyphenyl)-4-(2,2,6,6-tetramethyltetrahydro-2H-pyran-4-yl)-1H-imidazol-1-yl)benzonitrile], the half-inhibitory concentration (IC50) at human N-type Ca channel [1] is 2700 nM; on human N-type Ca channel [2] (setting [4]), 266 nM; against human N-type Ca channel [2] (setting [7]), over 1000 nM.
Take `COc1ncccc1-c1nc(C2CC(C)(C)OC(C)(C)C2)cn1-c1ccc(C#N)c(C)c1` [Compound 15, 4-(2-(2-methoxypyridin-3-yl)-4-(2,2,6,6-tetramethyltetrahydro-2H-pyran-4-yl)-1H-imidazol-1-yl)-2-methylbenzonitrile]: at human N-type Ca channel [1], the IC50 is 256 nM. Also, the “N Type IC50 Data Qpatch Pulse=1” value at human N-type Ca channel [2] is recorded as “poor fit(0.01-0.3 µM)”. Further, the “N Type IC50 Data Qpatch Pulse=15” value on human N-type Ca channel [2] (Pulse=15) is recorded as “poor fit(0.01-0.3 µM)”.
In the case of `COc1ncccc1-c1nc(C2CC(C)(C)OC(C)(C)C2)cn1-c1ccc(F)c(F)c1F` [Compound 16, 2-methoxy-3-(4-(2,2,6,6-tetramethyltetrahydro-2H-pyran-4-yl)-1-(2,3,4-trifluorophenyl)-1H-imidazol-2-yl)pyridine], on human N-type Ca channel [1], the IC50 was 359 nM. For the same compound, on human N-type Ca channel [2], the “N Type IC50 Data Qpatch Pulse=1” value is listed as “poor fit(0.01-0.3 µM)”. The “N Type IC50 Data Qpatch Pulse=15” value at human N-type Ca channel [2] (Pulse=15) is reported as “poor fit(0.01-0.3µM)”.
Turning to `COc1cccnc1-c1nc(C2CC(C)(C)OC(C)(C)C2)cn1-c1ccc(F)c(Cl)c1` [Compound 17, 2-(1-(3-chloro-4-fluorophenyl)-4-(2,2,6,6-tetramethyltetrahydro-2H-pyran-4-yl)-1H-imidazol-2-yl)-3-methoxypyridine], the concentration for half-maximal inhibition (IC50) at human N-type Ca channel [1] stood at 591 nM; at human N-type Ca channel [2] (setting [6]) it was 4400 nM; at human N-type Ca channel [2] (setting [3]), 5200 nM.
On to `COc1cnccc1-c1nc(C2CC(C)(C)OC(C)(C)C2)cn1-c1ccc(F)c(Cl)c1` [Compound 18, 4-(1-(3-chloro-4-fluorophenyl)-4-(2,2,6,6-tetramethyltetrahydro-2H-pyran-4-yl)-1H-imidazol-2-yl)-3-methoxypyridine], for which the IC50 on human N-type Ca channel [1] turned out to be 108 nM; against human N-type Ca channel [2] (setting [4]), 694 nM; at human N-type Ca channel [2] (setting [7]) it was 376 nM.
In the case of `COc1cccnc1-c1nc(C2CC(C)(C)OC(C)(C)C2)cn1-c1ccc(Cl)c(F)c1` [Compound 19, 2-(1-(4-chloro-3-fluorophenyl)-4-(2,2,6,6-tetramethyltetrahydro-2H-pyran-4-yl)-1H-imidazol-2-yl)-3-methoxypyridine], the IC50 at human N-type Ca channel [1] was found to be 263 nM; on human N-type Ca channel [2] (setting [4]), 966 nM. On human N-type Ca channel [2] (read-out: Qpatch Pulse=15 (percent inhibition)), the inhibition at 1 µM was found to be 28%.
In the case of `COc1ccncc1-c1nc(C2CC(C)(C)OC(C)(C)C2)cn1-c1ccc(F)c(Cl)c1` [Compound 20, 3-(1-(3-chloro-4-fluorophenyl)-4-(2,2,6,6-tetramethyltetrahydro-2H-pyran-4-yl)-1H-imidazol-2-yl)-4-methoxypyridine], the IC50 at human N-type Ca channel [1] was 1060 nM; against human N-type Ca channel [2] (setting [4]), over 1000 nM; on human N-type Ca channel [2] (setting [5]) it was over 1000 nM.
Turning to `COc1ccccc1-c1nc(C2CC(C)(C)OC(C)(C)C2)cn1-c1ccc(C#N)c(C)c1` [Compound 21, 4-(2-(2-methoxyphenyl)-4-(2,2,6,6-tetramethyltetrahydro-2H-pyran-4-yl)-1H-imidazol-1-yl)-2-methylbenzonitrile], the IC50 at human N-type Ca channel [1] was 119 nM; at human N-type Ca channel [2] (setting [4]), 639 nM.
For the compound `COc1ccccc1-c1nc(C2CC(C)(C)OC(C)(C)C2)cn1-c1ccc(C)c(C#N)c1` [Compound 22, 5-(2-(2-methoxyphenyl)-4-(2,2,6,6-tetramethyltetrahydro-2H-pyran-4-yl)-1H-imidazol-1-yl)-2-methylbenzonitrile], the half-maximal inhibitory concentration (IC50) on human N-type Ca channel [1] amounted to 75 nM; on human N-type Ca channel [2] (setting [4]) it was 590 nM; against human N-type Ca channel [2] (setting [7]), 847 nM.
Regarding `COc1cccnc1-c1nc(C2CC(C)(C)OC(C)(C)C2)cn1-c1ccc(F)c(F)c1` [Compound 35, 2-(1-(3,4-difluorophenyl)-4-(2,2,6,6-tetramethyltetrahydro-2H-pyran-4-yl)-1H-imidazol-2-yl)-3-methoxypyridine], the IC50 at human N-type Ca channel [1] came out at 838 nM.
With `COc1cccnc1-c1nc(C2CC(C)(C)OC(C)(C)C2)cn1-c1ccc(Cl)cc1` [Compound 67, 2-(1-(4-chlorophenyl)-4-(2,2,6,6-tetramethyltetrahydro-2H-pyran-4-yl)-1H-imidazol-2-yl)-3-methoxypyridine], the IC50 on human N-type Ca channel [1] came to 166 nM.
Regarding `COc1ccccc1-c1nc(C2CC(C)(C)OC(C)(C)C2)cn1Cc1cncnc1` [Compound 100, 5-((2-(2-methoxyphenyl) - 4-(2,2,6,6-tetramethyltetrahydro-2H-pyran-4-yl)-1H-imidazol-1-yl)methyl) pyrimidine], at human N-type Ca channel [1], the IC50 amounted to 10000 nM.
Turning to `COc1cccnc1-c1nc(C2(O)CC(C)(C)OC(C)(C)C2)cn1-c1ccc(Cl)cc1` [Compound 104, 4-(1-(4-chlorophenyl)-2-(3-methoxypyridin-2-yl)-1H-imidazol-4-yl)-2,2,6,6-tetramethyltetrahydro-2H-pyran-4-ol], at human N-type Ca channel [1], the IC50 came to 464 nM.
Consider `COc1ncccc1-c1nc(C2(O)CC(C)(C)OC(C)(C)C2)cn1-c1ccc(C#N)cc1` [Compound 115, 4-(4-(4-hydroxy-2,2,6,6-tetramethyltetrahydro-2H-pyran-4-yl)-2-(2-methoxypyridin-3-yl)-1H-imidazol-1-yl)benzonitrite], for which, on human N-type Ca channel [1], the IC50 turned out to be 731 nM.
For `COc1ccccc1-c1nc(C2=CC(C)(C)OC(C)(C)C2)cn1-c1ccc(C#N)c(F)c1` [Compound 126], the inhibition at 10 µM at human N-type Ca channel [2] came out at 29%.
